Patent publication US20200348280A1, “METHODS FOR PREDICTING CANCER DRUG RESPONSIVENESS” (Eutropics Pharmaceuticals, Inc., priority 2018, published 2020)

Assays:
SEV-Bcl-xL-Bim cells = assay: Flow cytometry HSBXB/Bcl-xL signal ratio in SEV-Bcl-xL-Bim cells; assay type: cell-based, human; conditions: 2 hours semi-permeabilized or 16 hours intact cells, flow cytometry (FIG. 14)
Method: In FIG. 14A, human seminal endothelial vesicle cells overexpressing ectopic Bcl-xL and Bim (SEV-Bcl-xL-Bim[ref]) were treated with A-1155463 at the indicated concentrations for 2 hours in semi-permeabilized cells, fixed, and then […] HSBXB or Bcl-xL antibody corrected to IgG-2A isotype. The ratio of the signals (y-axis) were collected flow cytometry. In FIG. 14B, intact SEV-Bcl-xL/Bim cells were treated with A-1155463 for 16 hours, fixed and stained as in FIG. 14A. The ratio of HSBXB and Bcl-xL signal was calculated as a percentage as shown below: […]

[1] = target: T1, Bcl-xL/Bim heterodimer in Bcl-xL expressing ATH66 cells (Homo sapiens, UniProt Q07817); assay: Flow cytometry HSBXB/Bcl-xL signal after BH3 mimetic treatment; assay type: cell-based
T1 construct: endogenous in cells; host or cells: ATH66 cells
T1 sequence (Q07817 whole entry, species assumed, one chain of several): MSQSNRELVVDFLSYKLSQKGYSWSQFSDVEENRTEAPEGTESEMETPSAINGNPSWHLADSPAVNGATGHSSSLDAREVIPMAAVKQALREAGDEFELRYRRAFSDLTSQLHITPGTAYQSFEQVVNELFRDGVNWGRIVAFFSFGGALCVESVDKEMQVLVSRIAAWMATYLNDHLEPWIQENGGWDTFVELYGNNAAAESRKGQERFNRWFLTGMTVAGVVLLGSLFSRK
Excerpt: FIG. 8 consists of two graphs that show how the Bcl-xL selective BH3 mimetic (A1155463) shifts the HSBXB heterodimer signal detected in cancer cells. For each series, the left bar is HSBXB signal and the right bar is total Bcl-xL. […] The term “I/C” on the x-axis of the graph refers to “isotype control.” and the term “CC” on the x-axis of the graph refers to the non-stained or “clean control.” The signal was detected using Flow Cytometry.
In these experiments, Bcl-xL expressing ATH66 cells were treated with the compound for 16 hours, then fixed with paraformaldehyde, permeabilized with non-ionic detergent and stained with HSBXB-FITC and with anti-Bcl-xL-Rhodamine. The signals were resolved using flow cytometry. The ratio of the signals provided the Bcl-xL priming index.

HCC1937 cells = assay: Immunofluorescence localization of Bcl-xL and HSBXB; assay type: cell-based, human; conditions: IF (FIG. 19)
Method: A quantitative analysis was performed using the software Zen 2011 (Blue edition, Carl Zeiss). For each panel, the bar at the far left is Mito-BCL-XL, the next bar is Mito-HSBXB, the next bar is Bcl-XL-HSBXB, the next bar is Bcl-XL-DAPI, and the bar on the far right is HSBXB-DAPI. […] Immunofluorescence (IF) stainings of the HSBXB antibody and the Bcl-XL inhibitor, A-1331852, are shown in FIG. 17 in untreated human breast cancer cells, HCC1937 and BT-474. IF stainings and relative signal intensity were obtained from human breast cancer cells, HCC1937, treated with or without the A-1331852 inhibitor, or treated with or without the HSBXB antibody, as shown in FIG. 18.

BT-474 = assay: Drug response (cell viability) in breast cancer cells; assay type: cell-based; conditions: BT-474 human breast cancer cells
Excerpt: (§1) FIG. 16A, and FIG. 16B are graphs showing drug response to A1331852 in breast cancer (BC) cells.
(§2) Drug response to the Bcl-xL inhibitor, A-1331852, or the MEK inhibitor, Selumetinib, was compared in two types of human breast cancer cells, HCC1937 and BT-474, as shown in FIG. 16A and FIG. 16B. […] Immunofluorescence (IF) stainings of the HSBXB antibody and the Bcl-XL inhibitor, A-1331852, are shown in FIG. 17 in untreated human breast cancer cells, HCC1937 and BT-474. IF stainings and relative signal intensity were obtained from human breast cancer cells, HCC1937, treated with or without the A-1331852 inhibitor, or treated with or without the HSBXB antibody, as shown in FIG. 18.

HCC1937 = assay: as above; assay type: cell-based; conditions: HCC1937 human breast cancer cells
Excerpt: as §1, §2

[2] = target: T2, Bcl-xL-GST/Bim BH3 heterodimer (Homo sapiens, UniProt Q07817); assay: ELISA, inhibition of HSBXB signal on non-covalent Bcl-xL-GST/Bim BH3 heterodimer; assay type: binding; conditions: heterodimers formed with peptide comprising the BH3 domain of Bim; compound added after peptides, before antibody
T2 construct: cloned and mutated to delete their transmembrane domains; made in house; host or cells: E. coli BL21
T2 sequence (Q07817 1-209 limits assumed, one chain of several): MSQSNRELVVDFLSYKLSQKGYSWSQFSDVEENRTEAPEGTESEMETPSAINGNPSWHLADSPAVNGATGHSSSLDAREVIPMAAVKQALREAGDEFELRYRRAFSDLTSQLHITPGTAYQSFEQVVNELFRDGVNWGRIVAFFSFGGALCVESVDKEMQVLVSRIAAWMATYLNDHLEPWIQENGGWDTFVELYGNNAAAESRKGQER
Method: (§3) To further characterize HSBXB, the antibody was assessed under conditions where Bcl-xL/Bim binding, mediated by the BH3 domain of Bim, was inhibited. […] In the experiment shown in FIG. 13A, Bcl-xL-GST was bound to glutathione-coated ELISA plates. Bim-BH3 peptide was then added, or not added as a control, and HSBXB antibody was used to detect complex formation. […] Non-covalent Bcl-xL-GST/Bim BH3 heterodimer was bound to glutathione-coated ELISA plates and treated with ABT-263. ABT-263 was then added to the ELISA plates after addition of peptides and before adding the monoclonal antibody.

[3] = target: T3, Bcl-xL-GST/Full length BIM protein (Homo sapiens, UniProt Q07817); assay: ELISA, inhibition of HSBXB signal on Bcl-xL-GST/full length BIM heterodimer; assay type: binding; conditions: heterodimers formed with full length Bim protein
T3 construct: cloned and mutated to delete their transmembrane domains; made in house; host or cells: E. coli BL21
T3 sequence (Q07817 1-209 limits assumed): as the sequence (Q07817 1-209 limits assumed, one chain of several) above
Method: The compound was added to the ELISA plates after addition of peptides and before adding the monoclonal antibody.
as §3

With `CN(C)CC#Cc1ccc(OCCCc2sc(N3CCc4cccc(C(=O)Nc5nc6ccccc6s5)c4C3)nc2C(=O)O)c(F)c1` [A-1155463] the “HSBXB signal (ratio of HSBXB and Bcl-xL signal)” value (SEV-Bcl-xL-Bim cells) was “HSBXB signal shifts”, the “Bcl-xL priming index (ratio of HSBXB-FITC and anti-Bcl-xL-Rhodamine signals)” value ([1]; ATH66 cells treated for 16 hours, flow cytometry) was “diminish over a time course that coincided with the occurrence of apoptosis” and the HSBXB heterodimer signal ([1]; sub-lethal dose, 16 hours, flow cytometry (FIG. 8)) was “lose signal after 16 hours”.
With `Cc1c(-c2ccc(N3CCc4cccc(C(=O)Nc5nc6ccccc6s5)c4C3)nc2C(=O)O)cnn1CC12CC3CC(CC(C3)C1)C2` [A-1331852] the “localization of Bcl-xL and HSBXB” value (HCC1937 cells) was “Changes in the localization of Bcl-xL and HSBXB”, the cell viability (BT-474) was “decrease in cell viability” and the cell viability (HCC1937) was “decrease in cell viability”.
In the case of `CC1(C)CCC(c2ccc(Cl)cc2)=C(CN2CCN(c3ccc(C(=O)NS(=O)(=O)c4ccc(N[C@H](CCN5CCOCC5)CSc5ccccc5)c(S(=O)(=O)C(F)(F)F)c4)cc3)CC2)C1` [ABT-263], the “inhibition of heterodimer antibody (HSBXB) signal” value [2] is reported as “dose-dependent inhibition of heterodimer antibody signal” and the “inhibition of heterodimer antibody (HSBXB) signal” value [3] is reported as “dose-dependent inhibition of heterodimer antibody signal”.
